Measured values: patent US7019112B1, “Peptides recognized by melanoma-specific A1-, A2- and A3-restricted cytoxic lymphocytes, and uses therefor” (University of Virginia Patent Foundation, priority 1996, dated 2006)
Entries after “also recorded” stand apart in the source; their conditions may differ. Where two headings read alike, the source gives them in different places. Where no end group is shown, it is not given here.

Experiments:
T2 cells = assay: Chromium release assay: reconstitution of epitopes on peptide-pulsed T2 cells for HLA-A2.1-restricted melanoma-specific CTL; details: for reconstitution of recognition by CTL lines from 3 additional patients: 946 at 0.1–1 nM, other peptides at equal or higher concentrations, FIG. 12; for number of CTL lines/patients recognizing the peptide: HLA-A2.1 restricted melanoma specific CTL lines; for % specific release (of Cr-51), no CTL: T2 + peptide 1 μM; for effect on epitope reconstitution: VMM5 and DM204-13 CTL, concentrations up to 10 nM
Method: Cell-mediated killing was determined in vitro using a 4-h chromium release assay. 51Cr-labeled target cells were plated at 2×10^3 cells/well in triplicate on 96-well V-bottom plates (Costar, Cambridge, Mass.) with varying numbers of effector cells in a final volume of 250 microl. Wells containing either culture medium and target cells only or 1 M HCl and target cells served as background 51Cr release controls and total release controls, respectively. The plates were centrifuged at 100×g for 3 min and incubated at 37° C. in 5% CO2 for 4 h. The plates were again centrifuged, and 0.20 ml of medium from each well was removed for counting in a gamma counter. The cytotoxic index was calculated as: Cpm(experimental)−cpm(background)×100% Cpm(total release)−cpm(background) Lytic units were calculated for several of the cytotoxicity assays, using a software package prepared by the National. Cancer Institute (Bethesda, Md.), which solves for the equation y=A×[1−exp(−kx)], where x is the E:T ratio, y is the cytotoxic index, A is the curve maximum, and k is a constant used to calculate the slope of the best fit line. For the purposes of this study, a lytic unit was defined as the number of effector cells needed to mediate […] lysis of target cells. The number of lytic units was calculated per 10^5 effector cells (LU30 per 10^5 cells).
Effector cells were added in 100 microl assay medium to give an E:T ratio of 10:1, and were incubated at 37° C. The remainder of the assay is performed as in standard chromium release assays described above. Wells containing peptide and target cells but no CTL were used as controls to rule out toxicity of the peptides themselves.
HLA-A2.1 molecules were immunoaffinity purified from detergent lysates of the human melanoma cell line DM6. The associated peptides were released by acid extraction, separated from HLA-A2.1 and antibody by filtration, and fractionated by multiple stages of HPLC. […] L. Slingluff Jr., et al, J. Immunol. […] In FIG. 8B Fractions 2 and 3 from the separation shown in panel A were pooled and rechromatographed with a 55 minute gradient of 0 to 30% acetonitrile/0.1% heptafluorobutyric acid (HFBA) in 0.1% HFBA, collecting one-minute fractions. For both panels, peptide: fractions were incubated for 2–3h with 2×10^3 51Cr-labelled T2 cells in […] assay media per well in 96-well plates.
CTL lines VMM5 and VMM6 were generated by stimulation with autologous tumor. VMM5 CTL were maintained on allogeneic. A2.1+melanoma DM6 after specificity was obtained, C. L. Slingluff Jr. et al., J. Immunol. […] DM169-13 and DM204-13 CTL were generated by stimulation with allogeneic A2.1+melanoma DM13, N. J. Crowley et al., J. Immunol. […] LD1 CTL were stimulated on a rotating schedule of stimulating allogeneic A2.1+melanomas DM6, DM13, and DM93. DM93 is an HLA-A2.1+melanoma used as a positive control. […] T2 cells were preincubated with the peptides whose (M+H)^+ values are indicated in the legend, FIG. 12. […] Asterisks (*) mark peptides not evaluated.

VMM12 CTL = assay: Recognition of Pmel-17 peptide by VMM12 CTL; format: cell-based, human
From the text: However, VMM12 CTL do recognize and lyse VMM18 melanoma cells. Because the only Class I MHC molecule shared by VMM12 and VMM18 is HLA-A3, it is evident that at least one additional shared CTL epitope is expressed by both of these tumors.

T2-A3 cells = format: cell-based, human
VMM12-EBV = assay: Screen of Pmel-17/gp100 peptides for sensitizing VMM12-EBV cells for lysis by VMM18 CTL; format: cell-based, human; details: Table 102 (not given)
[1] = test system: tyrosinase specific CTL clone IVSB; assay: Sensitization of target cells for lysis by tyrosinase specific CTL clone IVSB; format: cell-based, human
From the text: T. Wolfei, et. al., Eur. J. Immuno. 24, 759 (1994). […] Even when target cells were pretreated with the monoclonal antibody MA2.1 in order to facilitate exogenous peptide binding to HLA-A2.1. T. Wolfei, et al., Eur. J. Immunol.

C1R-A1 cells [2] = assay: Chromium release assay: peptide-pulsed C1R-A1 cells, VMM15 CTL; format: cell-based, human; details: for reconstitution of an epitope for VMM15 CTL: C1R-A1 pulsed with 10 uM, 1 uM and 0.1 uM peptide, FIG. 22
C1R-A1 cells [3] = assay: Chromium release assay: peptide-pulsed C1R-A1 cells, VMM12 CTL; format: cell-based, human; details: C1R-A1 pulsed with 1 to 0.03 uM peptide; FIG. 23
[4] = T2-A3, VMM18 CTL, FIG. 18, read-out: half maximal lysis
[5] = CTL clone IVSB, read-out: half maximal lysis

For “Tyr Xaa Glu Pro Gly Pro Val Thr Ala (YXEPGPVTA; not fully specified; X: randomised place (mixture)) [compound 946]”, the “reconstitution of recognition by CTL lines from 3 additional patients” value (from here on “reconstitution of recognition”) (T2 cells) was “reconstituted recognition by each of these 3 lines”, the “number of CTL lines/patients recognizing the peptide” value (T2 cells) was 5 out of 5 and the EC50 (T2 cells; read-out: half-maximal lysis, dose response curves, two of the 3 additional CTL lines) was 0.001 to 0.01 nM. For the same compound, the EC50 (T2 cells; read-out: half-maximal lysis, other assays) was 0.001 nM.

For `CC[C@H](C)[C@H](NC(=O)[C@@H](N)Cc1ccc(O)cc1)C(=O)N[C@@H](CCC(=O)O)C(=O)N1CCC[C@H]1C(=O)NCC(=O)N1CCC[C@H]1C(=O)N[C@H](C(=O)N[C@H](C(=O)N[C@@H](C)C(=O)O)[C@@H](C)O)C(C)C` [946I], the “% specific release (of Cr-51), no CTL” value (T2 cells) was 0.1%.

In the case of ALLAVGATK [SEQ ID NO:98], the “recognition by CTL from patient VMM12” value (VMM12 CTL) is reported as “not recognized”, the EC50 (T2-A3 cells; [4]) is reported as 1 to 10 nM and the EC50 (T2-A3 cells; read-out: half-maximal lysis of T2 cells expressing HLA-A3) is reported as about 10 nM. The “sensitization of VMM12-EBV for lysis by VMM18 CTL” value (VMM12-EBV) was “sensitized VMM12-EBV for lysis by VMM18 CTL”.

With SMAPGNTSV [compound 864] the “reconstitution of recognition” value (T2 cells) was “neither 864 nor 1046 had any detectable activity” and the “effect on epitope reconstitution” value (T2 cells) was “no effect”.

Compound YMDGTMSQV [SEQ ID NO:9] has an EC50 [1, 5] of 100 nM.

“EKCDICTDEY (cysteine pairing not given here) [SEQ ID NO:102]” was tested, and the “reconstitution of an epitope for VMM15 CTL” value (C1R-A1 cells [2]) was “also recognized; also recorded: reconstituted”.

In the case of LLAVGATK [SEQ ID NO:4], the EC50 (T2-A3 cells; [4]) is reported as over 1000 nM and the “sensitization of VMM12-EBV for lysis by VMM18 CTL” value (VMM12-EBV) is reported as “sensitized VMM12-EBV for lysis by VMM18 CTL”.

In the case of `CC(C)C[C@H](NC(=O)[C@@H](N)Cc1ccc(O)cc1)C(=O)N[C@@H](CCC(=O)O)C(=O)N1CCC[C@H]1C(=O)NCC(=O)N1CCC[C@H]1C(=O)N[C@H](C(=O)N[C@H](C(=O)N[C@@H](C)C(=O)O)[C@@H](C)O)C(C)C` [946L], the “% specific release (of Cr-51), no CTL” value (T2 cells) is reported as -1.4%.

With “Ala-Xaa-Tyr-Asp-Ala-Thr-Tyr-Glu-Thr, wherein Xaa=Leu or Ile [compound 1046]” the “reconstitution of recognition” value (T2 cells) was “neither 864 nor 1046 had any detectable activity” and the “effect on epitope reconstitution” value (T2 cells) was “no effect”.

For “Tyr met Asn Gly Thr Met Ser Gln Val [SEQ ID NO:94]”, the EC50 [1, 5] was 10000 nM, the EC50 ([1]; target cells pretreated with monoclonal antibody MA2.1, read-out: concentration required to give half-maximal target cell lysis) was over 1000 nM and the “number of CTL lines/patients recognizing the peptide” value (T2 cells) was “None of 4”.

For “DAEKCDICTDEY (cysteine pairing not given here) [SEQ ID NO:101]”, the “reconstitution of an epitope for VMM15 CTL” value (C1R-A1 cells [2]) was “also recognized; also recorded: reconstituted” and the “reconstitution of an epitope for VMM12 CTL” value (C1R-A1 cells [3]) was “reconstituted an epitope for these VMM12 CTL, although weakly”.

With KCDICTDEY [SEQ ID NO:93] the half-maximal lysis (C1R-A1 cells [2]) was “approximately 1 ug/ml”, the “reconstitution of an epitope for VMM15 CTL” value (C1R-A1 cells [2]) was “most effective, even at the lowest concentration tested; also recorded: reconstituted” and the “reconstitution of an epitope for VMM15 CTL” value (C1R-A1 cells [2]; listed as KCDICTDEY) was “reconstitutes an epitope for VMM15 CTL”. It also gave an EC50 (C1R-A1 cells [2]; read-out: half-maximal lysis) of about 1000 nM.
